Series [1] can be described thus: Compatibility of co-solvent carrier with hyaluronic acid hydrogel (visually observed turbidity). In kind it is physicochemical. As to conditions: solvent added in 200 μl aliquots to 2 ml gel of 20 mg/ml hyaluronic acid in water; maximum added 5 ml. The protocol: Co-solvent systems were prepared by the addition of water miscible organic solvents to a hyaluronic acid (HA) gel containing 20 mg/ml hyaluronic acid in water. The organic solvent was added with stirring in aliquots of 200 μl. After the addition of each aliquot, the mixture was allowed to stir for several minutes and observed for signs of turbidity or rapidly changing viscosity. At the first sign of visually observed turbidity, the volume of organic solvent added was noted and the ratio of co-solvent to water calculated. In the event that turbidity was not observed the maximum amount of solvent added was 5 ml to 2 ml of gel.

Series [2] deals with collagen induced arthritis in an animal model. To be noted: cited from earlier work.
Series [3] concerns AP-1. To be noted: via reduced AP-1 binding to DNA; cited from earlier work.
Series [4] has as its system T-cell. To be noted: cited from earlier work.
The test system of series [5] is normal chondrocytes and non-proliferating synoviocytes. As to conditions: cited from earlier work.
The subject of series [6] is neutrophil. As to conditions: cited from earlier work.
Series [7] concerns synoviocytes. As to conditions: cited from earlier work.
Series [8] is described as follows: physchem. To be noted: aqueous with cosolvent or surfactant or cyclodextrin, thermodynamic from solid. The protocol:
After determining suitability in this manner, co-solvent systems may be further assessed in terms of biocompatibility. Solubility was determined as follows:
To a 1 ml aliquot of a co-solvent system described by the ratio of organic solvent to water was added precisely to 5 and 10 mg±10% paclitaxel. The mixtures were equilibrated at room temperature for 16 hours and observed for clarity and particulates in the liquid.

The term solubility denotes the dissolved amount per volume that the medium holds.

Values after ≈ are worked out from the molar mass of the structure shown. Bounds are passed on as bounds.

Turning to `C[S+](C)[O-]` [Dimethylsulfoxide], the “Max. amt. added to HA Gel without turbidity” value in series [1] is on record as above 5 ml in 2 ml.
As for `CCO` [Ethanol], the “Max. amt. added to HA Gel without turbidity” value in series [1] came out at 4 ml in 2 ml.
As to `CCOCCOCCO` [Ethoxydiglycol], the “Max. amt. added to HA Gel without turbidity” value in series [1] amounted to 2 ml in 2 ml.
Turning to `CN1CCCC1=O` [N-methylpyrrolidone], the “Max. amt. added to HA Gel without turbidity” value in series [1] is above 5 ml in 2 ml.
Take `CC(=O)O[C@H]1C(=O)[C@@]2(C)[C@H]([C@H](OC(=O)c3ccccc3)[C@]3(O)C[C@H](OC(=O)[C@H](O)[C@@H](NC(=O)c4ccccc4)c4ccccc4)C(C)=C1C3(C)C)[C@]1(OC(C)=O)CO[C@@H]1C[C@@H]2O` [paclitaxel]: in series [2], the collagen induced arthritis entry is listed as “inhibits”. In addition, in series [3], the AP-1 transcription activity result is recorded as “inhibits”. For the same compound, the T-cell function entry in series [4] is recorded as “inhibits”. Also, the “T-cell response to stimuli” value in series [4] is “decreases”. For the same compound, in series [5], the “toxicity to non-proliferating cells” value is listed as “non-toxic”. Also, in series [6], the neutrophil activation result is given as “inhibits”. Besides, the apoptosis in synoviocytes result in series [7] is reported as “induces”. For the same compound, the proliferation of synoviocytes entry in series [7] was “prevents”. Further, the solubility at 16 h in series [8] (Dimethylsulfoxide:water co-solvent mixture) was below 5000 µg/mL; in series [8] (Ethanol:water co-solvent mixture) it was 5000 to 10000 µg/mL (≈ 5.86 to 11.7 mM); in series [8] (Ethoxydiglycol:water co-solvent mixture) it was below 5000 µg/mL; in series [8] (N-methylpyrrolidone:water co-solvent mixture), above 10000 µg/mL; in series [8] (PEG 200:water co-solvent mixture), 5000 to 10000 µg/mL (≈ 5.86 to 11.7 mM).

The values above are taken from patent US20070213393A1, “COMPOSITIONS AND METHODS FOR TREATING INFLAMMATORY CONDITIONS UTILIZING PROTEIN OR POLYSACCHARIDE CONTAINING ANTI-MICROTUBULE AGENTS” (ANGIOTECH INTERNATIONAL AG, priority 2001, published 2007).
